Consider five compounds from PubChem BioAssay AID588756 (Broad Institute, 2011).

Active and inactive are the calls of the source.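 How the source made its calls: active means a falling-signal curve whose fitted AC50 is at most ten times the top valid dose; inconclusive means flat fit with 30 to 70% inhibition, or a poor fit; inactive means the rest.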

The test deals with Aurora kinase B (Homo sapiens) (UniProt Q96GD4). The experiment in a line: Aurora B kinase inhibition counter-screen, dose response, counter-screen for STK33 inhibitor project, biochemical, scintillation, dry powder, set 2 (AID 588756). As to conditions: gamma-32P-ATP (ATP at Km), P30 filter scintillation.
Sequence of Aurora kinase B (Homo sapiens) (Q96GD4 whole entry, looked up): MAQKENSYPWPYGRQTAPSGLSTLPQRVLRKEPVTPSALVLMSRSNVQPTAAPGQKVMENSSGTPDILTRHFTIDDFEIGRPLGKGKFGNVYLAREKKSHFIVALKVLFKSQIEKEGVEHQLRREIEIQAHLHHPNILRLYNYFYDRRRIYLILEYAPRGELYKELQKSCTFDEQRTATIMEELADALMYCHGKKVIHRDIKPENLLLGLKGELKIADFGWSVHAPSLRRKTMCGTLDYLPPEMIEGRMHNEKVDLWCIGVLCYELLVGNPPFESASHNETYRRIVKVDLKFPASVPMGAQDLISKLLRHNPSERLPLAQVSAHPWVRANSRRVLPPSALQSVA

For `COc1cc(/C=C2\S/C(=N/c3ccccn3)NC2=O)ccc1O`, for the setting “at 10 µM (top of the series)”, the “activity change, negative = inhibition” value was “inactive”.

Consider `COc1cc(/C=C2\SC(N)=NC2=O)ccc1O`, for which the AC50 was > 20 µM (inactive).

`COc1cc(/C=C2\SC(=Nc3ccccc3F)NC2=O)ccc1O`: the AC50 was > 20 µM (inactive).

In the case of `COc1cc(/C=C2\SC(=NCc3ccccc3)NC2=O)ccc1O`, the AC50 is 2.92 µM.

Take `COc1cc(/C=C2\SC(=Nc3ccccc3Cl)NC2=O)ccc1O`: the AC50 was 10.1 µM.
